# Assay results: ChEMBL document CHEMBL1201862, “PubChem BioAssay data set” (2004)
# Calls of active or inactive are those of the source.
# What was measured:
# [1] = molecular target: T1, Protein skinhead-1 (Caenorhabditis elegans, UniProt P34707); format: functional
# T1 sequence (P34707 whole entry): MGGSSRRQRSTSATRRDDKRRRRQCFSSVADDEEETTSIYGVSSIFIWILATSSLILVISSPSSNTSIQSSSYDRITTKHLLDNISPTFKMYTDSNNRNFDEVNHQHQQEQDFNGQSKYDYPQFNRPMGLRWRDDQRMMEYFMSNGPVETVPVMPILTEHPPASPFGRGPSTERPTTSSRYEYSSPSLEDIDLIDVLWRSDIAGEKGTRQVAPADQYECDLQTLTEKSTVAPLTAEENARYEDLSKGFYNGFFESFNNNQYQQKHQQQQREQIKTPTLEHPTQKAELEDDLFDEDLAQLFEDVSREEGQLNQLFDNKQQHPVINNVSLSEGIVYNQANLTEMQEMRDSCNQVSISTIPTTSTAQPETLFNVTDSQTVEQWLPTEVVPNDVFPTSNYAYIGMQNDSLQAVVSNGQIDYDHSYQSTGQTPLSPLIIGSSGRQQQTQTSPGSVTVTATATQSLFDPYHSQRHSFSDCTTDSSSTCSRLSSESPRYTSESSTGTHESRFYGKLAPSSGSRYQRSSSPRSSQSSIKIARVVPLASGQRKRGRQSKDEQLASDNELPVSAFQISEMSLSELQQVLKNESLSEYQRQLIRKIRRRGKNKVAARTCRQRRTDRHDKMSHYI
# [2] = A cytotoxicity screen of small molecule inhibitors of the PhoP region in Salmonella typhi identified in the primary screen. [Related pubchem assays: 1850, 1864, 1985 ]; format: functional
# [3] = molecular target: T2, Polyadenylate-binding protein 1 (Homo sapiens, UniProt P11940); test: PABP1 MLLE–PAM2 interaction inhibitors, dose response, miRNA deadenylation inhibitor project, biochemical, fluorescence polarization, Cy5-PAM2 peptide, secondary (AID 602260); format: functional; settings: read-out: IC50_Mean
# T2 sequence (P11940 whole entry): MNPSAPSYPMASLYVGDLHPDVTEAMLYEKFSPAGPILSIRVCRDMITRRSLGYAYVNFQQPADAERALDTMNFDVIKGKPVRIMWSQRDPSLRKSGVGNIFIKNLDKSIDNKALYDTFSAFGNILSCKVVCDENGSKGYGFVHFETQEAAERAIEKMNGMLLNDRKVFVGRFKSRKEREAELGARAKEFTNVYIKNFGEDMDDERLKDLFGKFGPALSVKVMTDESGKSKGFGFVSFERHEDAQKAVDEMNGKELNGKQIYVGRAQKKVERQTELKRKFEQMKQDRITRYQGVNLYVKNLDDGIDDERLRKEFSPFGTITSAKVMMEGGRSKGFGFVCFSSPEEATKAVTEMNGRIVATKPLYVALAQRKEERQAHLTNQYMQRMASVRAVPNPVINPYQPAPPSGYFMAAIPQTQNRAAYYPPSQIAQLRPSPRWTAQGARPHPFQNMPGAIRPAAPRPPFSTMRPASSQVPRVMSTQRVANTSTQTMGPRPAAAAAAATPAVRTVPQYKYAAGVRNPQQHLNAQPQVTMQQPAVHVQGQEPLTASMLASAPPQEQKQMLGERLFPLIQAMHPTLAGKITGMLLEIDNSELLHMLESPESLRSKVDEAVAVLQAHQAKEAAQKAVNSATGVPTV
# [4] = molecular target: T2, Polyadenylate-binding protein 1; test: PABP1 MLLE–PAM2 binding inhibitor potency, dose response, biochemical, fluorescence polarization, FITC-PAM2 peptide (AID 602259); format: functional; settings: read-out: IC50_Mean
# [5] = molecular target: T3, High affinity choline transporter 1 (Homo sapiens, UniProt Q9GZV3); test: CHT inhibitors, dose response, cell-based, 5-point CRC, membrane potential dye (AID 504840); format: functional
# T3 sequence (Q9GZV3 whole entry): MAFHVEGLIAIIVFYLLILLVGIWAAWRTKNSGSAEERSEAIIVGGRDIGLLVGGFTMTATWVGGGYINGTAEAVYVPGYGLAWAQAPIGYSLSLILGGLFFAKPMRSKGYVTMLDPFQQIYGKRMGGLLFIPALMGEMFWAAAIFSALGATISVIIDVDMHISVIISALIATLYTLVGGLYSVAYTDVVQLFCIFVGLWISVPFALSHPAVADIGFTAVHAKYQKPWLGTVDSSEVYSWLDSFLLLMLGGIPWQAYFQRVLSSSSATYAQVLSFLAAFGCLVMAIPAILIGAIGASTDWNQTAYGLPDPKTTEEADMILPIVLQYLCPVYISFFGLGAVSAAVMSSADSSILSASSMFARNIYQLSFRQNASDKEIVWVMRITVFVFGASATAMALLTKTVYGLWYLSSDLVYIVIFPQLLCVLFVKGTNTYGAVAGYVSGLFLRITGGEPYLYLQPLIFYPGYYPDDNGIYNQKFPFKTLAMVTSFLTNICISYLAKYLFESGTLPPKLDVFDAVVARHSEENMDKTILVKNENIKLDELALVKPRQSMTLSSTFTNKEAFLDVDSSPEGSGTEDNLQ
# [6] = test system: Streptococcus sp. 'group A'; test: growth inhibition of control SK(-) GAS strain, dose response, counter-screen for streptokinase expression inhibitor project, luminescence, kanamycin, BacTiterGlo, confirmation (AID 1900); format: functional, organism-based
# [7] = test system: Streptococcus; test: Group A Streptococcus viability loss, dose response, counter-screen for streptokinase expression inhibitor project, luminescence, BacTiterGlo (AID 1915); format: functional, organism-based;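 also: potency for reduction of bacterial viability or growth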
# [8] = molecular target: T4, Heat shock factor protein 1 (Mus musculus, UniProt P38532); test: HSF1 potentiators in luciferase reporter cells, confirmation, cell-based, NIH3T3, luminescence, dose retest (AID 435004); format: functional;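 also: stress induced by proteasome inhibitor MG132 added 30 min after compound; luciferase reporter driven by HSF1 response element in NIH3T3 cells; actives raise luminescence as potentiators of the MG132 stress response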
# T4 sequence (P38532 whole entry): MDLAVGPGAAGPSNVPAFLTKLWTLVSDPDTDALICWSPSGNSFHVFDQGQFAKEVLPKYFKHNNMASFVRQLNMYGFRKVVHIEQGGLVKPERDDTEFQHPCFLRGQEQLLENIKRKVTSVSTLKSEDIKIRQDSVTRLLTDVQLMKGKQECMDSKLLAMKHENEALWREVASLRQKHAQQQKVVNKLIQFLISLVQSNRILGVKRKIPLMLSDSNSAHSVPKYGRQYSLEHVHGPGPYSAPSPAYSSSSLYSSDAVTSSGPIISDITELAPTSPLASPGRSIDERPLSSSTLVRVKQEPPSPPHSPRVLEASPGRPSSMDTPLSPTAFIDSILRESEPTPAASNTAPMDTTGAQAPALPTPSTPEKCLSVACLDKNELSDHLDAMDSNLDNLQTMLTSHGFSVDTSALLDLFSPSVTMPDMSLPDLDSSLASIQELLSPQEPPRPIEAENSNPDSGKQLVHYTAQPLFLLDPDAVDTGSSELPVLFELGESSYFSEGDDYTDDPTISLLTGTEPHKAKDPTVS
# [9] = microbe, parasite or virus in culture; format: functional; settings: Mycobacterium tuberculosis
# [10] = Luminescence Cell-Based Dose Retest to Confirm Inhibitors of Cancer Stem Cells. [Related pubchem assays (depositor defined):AID2717, AID2721]; format: functional; settings: Homo sapiens
# [11] = molecular target: T5, Streptokinase A (Streptococcus pyogenes serotype M1, UniProt P10520); test: S. pyogenes streptokinase expression inhibitors, potency, dose response, plasminogen activation absorbance, OD405 (AID 1914); format: functional, Streptococcus pyogenes M1 GAS;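 also: secreted streptokinase activity via plasminogen activation per viability signal from cell pellet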
# T5 sequence (P10520 whole entry): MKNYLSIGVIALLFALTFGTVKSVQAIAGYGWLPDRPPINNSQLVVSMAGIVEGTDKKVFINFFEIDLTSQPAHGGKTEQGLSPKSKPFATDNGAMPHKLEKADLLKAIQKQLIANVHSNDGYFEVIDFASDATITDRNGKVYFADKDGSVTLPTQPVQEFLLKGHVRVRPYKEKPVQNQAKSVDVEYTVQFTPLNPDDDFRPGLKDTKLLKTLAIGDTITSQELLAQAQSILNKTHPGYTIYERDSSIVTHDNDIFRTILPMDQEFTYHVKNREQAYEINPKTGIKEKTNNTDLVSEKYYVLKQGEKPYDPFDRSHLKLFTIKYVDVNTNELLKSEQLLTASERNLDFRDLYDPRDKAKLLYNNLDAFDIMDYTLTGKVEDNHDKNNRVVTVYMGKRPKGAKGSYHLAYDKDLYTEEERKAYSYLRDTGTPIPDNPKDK
# [12] = cells; format: functional
# [13] = Luminescence Cell-Based Dose Confirmation HTS to Identify Activators of 5'UTR Stem-Loop Driven Alpha-Synuclein mRNA Translation in H4 Neuroglioblastoma Cells. [Related pubchem assays: 1829 (Project Summary), 1814 (Primary HTS)]; format: functional
# [14] = Luminescence Cell-Based Dose Response HTS to Identify Activators of Luciferase Translation or Activity in H4 […] Cells. [Related pubchem assays: 1829 (Project Summary), 1814 (Primary HTS)]; format: functional
# [15] = test system: H4; test: Luminescence Cell-Based Dose Response HTS to Identify Activators of 5'UTR Stem-Loop Driven Prion Protein mRNA Translation in H4 Neuroglioblastoma Cells. [Related pubchem assays: 1829 (Project Summary), 1814 (Primary HTS)]; format: functional; settings: Homo sapiens
# [16] = inhibitors of intracellular T. cruzi replication, confirmation, NIH3T3 host cells, beta-gal luminescence (AID 2044); format: functional, cell-based;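 also: intracellular parasites grown in NIH/3T3 mouse fibroblasts as host cells; luminescent beta-galactosidase reporter signal from transgenic T. cruzi replicating inside host cells; inhibitors lower the luminescence signal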
# [17] = cytotoxicity toward NIH3T3 fibroblasts, dose response, counter-screen, cell-based, ATP luminescence, mouse fibroblasts (AID 2010); format: functional;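 also: cells exposed to compound for about 90 hours before reading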
# [18] = test system: INS1; test: beta cell apoptosis inhibitors, cytokine rescue, dose response, luminescence, retest (AID 449756); format: functional, cell-based; settings: Rattus norvegicus;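 also: cell death triggered by IL-1 beta plus TNF-alpha plus IFN-gamma mixture; protective hits raise ATP signal compared with cytokine alone wells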
compound,measurement,setting,value
C[C@@]12C(=O)N(Cc3ccc(-c4ccccc4)cc3)CC(=O)N1[C@H](/C=C/c1ccccc1)[C@@H]1C(=O)N(c3ccccc3)C(=O)[C@@H]12,IC50,[1],> 100 µM (inactive)
O=C(Nc1ccc(Cl)cc1)NC1CCCCNC1=O (stereo unspecified),IC50,[1],> 100 µM (inactive)
CC(=O)NCCn1c(C)cc2ccccc21,IC50,[1],> 100 µM (inactive)
CC(c1ccccc1)(c1ccccc1)c1ccncc1,EC50,[2],> 50 µM (active)
O=C(CCn1c(=O)c2ccccc2n(CC(=O)NCCC2=CCCCC2)c1=O)NCc1ccco1,IC50,[1],> 100 µM (inactive)
Clc1c(-c2ccccc2)nnn1-c1ccccc1,IC50,[1],> 100 µM (inactive)
CCOC(=O)c1c(N2C(=O)CC(Sc3ccccc3C(=O)O)C2=O)sc2c1CCCC2 (stereo unspecified),IC50,[3],> 66 µM (inactive)
same,IC50,[4],> 66 µM (inactive)
Cc1cccc(N2CCN(C(=O)c3ccc(CNc4c(N5CCC(C)CC5)c(=O)c4=O)cc3)CC2C)c1 (stereo unspecified),IC50,[5],14.5 µM (active)
N#C/C(=C(/O)c1ccco1)c1nc2ccccc2s1,EC50,[2],> 50 µM (active)
COc1ccc(S(=O)(=O)N2CN3CCN(C3)C2)cc1,EC50,[2],> 50 µM (active)
NC(=O)c1ccc[n+](CC(=O)c2cccc([N+](=O)[O-])c2)c1,EC50,[2],> 50 µM (active)
CCN1CCCC1CNC(=O)c1ccc2c(c1)N(Cc1ccccc1F)C(=O)c1ccccc1S2(=O)=O (stereo unspecified),IC50,[5],11.2 µM (active)
COc1cc(C(=O)NC(=S)Nc2ccc(NC(=O)c3ccco3)cc2)cc(OC)c1OC,EC50,[6],14.8 µM (active)
same,EC50,[7],7.42 µM (active)
same,IC50,[3],> 66 µM (inactive)
same,IC50,[4],> 66 µM (inactive)
O=C(Cc1c(O)c2ccccc2[nH]c1=O)NCc1ccccc1,EC50,[8],> 260 µM (inactive)
COc1nc(-c2ccccc2)cc(-c2ccc(OC)c(OC)c2)n1,CC50,[9],> 40 µM (active)
CN1CCN(C2=Cc3ccc(Cl)cc3Sc3ccc(F)cc32)CC1,EC50,[6],7.12 µM (active)
same,CC50,[9],33.1 µM (active)
same,EC50,[7],7.8 µM (active)
same,AC50,[10],6.81 µM (active)
CC(C)Oc1ccc(C(=O)NC2=NCCS2)cc1,IC50,[3],> 66 µM (inactive)
same,IC50,[4],> 66 µM (inactive)
Sc1nc2ccccc2c2nc(-c3ccccc3)nn12,EC50,[6],5.84 µM (active)
same,EC50,[11],> 150 µM (not active)
same,CC50,[9],35.2 µM (active)
same,EC50,[7],> 150 µM (not active)
O=C1C=C(c2ccccc2)CC(/C=C/c2ccccc2)C1 (stereo unspecified),EC50,[8],> 260 µM (inactive)
CC(C)Cn1c(=O)c2c(nc3n2CCCN3CCc2ccccc2)n(C)c1=O,IC50,[5],13.2 µM (active)
COC(=O)C(O)(c1ccc(NC(=S)NC(=O)c2ccccc2)cc1)C(F)(F)F (stereo unspecified),IC50,[12],39.6 µM (active)
CC(C)(C)C(=O)Nc1scc(-c2ccc(-c3ccccc3)cc2)c1C(=O)O,IC50,[5],14.5 µM (active)
Cc1cccc(C(=O)Nc2cccc(OCC(=O)O)c2)c1,IC50,[5],7.59 µM (active)
O=C(NC(=S)Nc1ncccn1)c1ccccc1Br,IC50,[3],> 66 µM (inactive)
same,IC50,[4],> 66 µM (inactive)
Brc1ccc(-c2nnc(-c3ccccc3)o2)o1,IC50,[1],> 100 µM (inactive)
COc1ccc(-c2ccc(OC)c([C@H]3[C@@H]4C=CCC[C@@]4(C)C(=O)N3Cc3ccccc3)c2)cc1OC,CC50,[9],> 40 µM (active)
COc1ccc(CNc2[nH]cnc3c4cc(OC)c(OC)cc4nc2-3)cc1,CC50,[9],> 40 µM (active)
CCC(C)(C)n1nnnc1C(c1cc2cc(C)cc(C)c2nc1O)N1CCN(Cc2ccc3c(c2)OCO3)CC1 (stereo unspecified),EC50,[8],> 260 µM (inactive)
COc1ccccc1C1CC(c2cccc(NS(C)(=O)=O)c2)=NN1S(=O)(=O)c1ccccc1 (stereo unspecified),IC50,[1],> 100 µM (inactive)
CCCN1CCc2nc(S)nc(O)c2C1,IC50,[3],> 66 µM (inactive)
same,IC50,[4],> 66 µM (inactive)
CC1CC(C)CN(C(=O)COC(=O)c2ccc([N+](=O)[O-])o2)C1 (stereo unspecified),IC50,[12],14.7 µM (active)
Cc1ccc(NC(S)=NCc2cccs2)cc1,EC50,[2],> 50 µM (active)
Cc1cc(C)c(Cn2c3ccccc3c3cnn(CC(=O)NCCN4CCOCC4)c(=O)c32)c(C)c1,IC50,[5],15.8 µM (active)
O=[N+]([O-])c1ccc(-c2cnc(NO)nc2)cc1,EC50,[2],> 50 µM (active)
Cc1cccc(N2CCN(C(=O)CCN3C(S)=NC(C)(C)CC3C)CC2)c1C (stereo unspecified),EC50,[2],> 50 µM (active)
Cc1nc(NC(=O)C23CC4CC(CC(C4)C2)C3)sc1Cc1ccc2c(c1)OCO2,EC50,[13],15.8 µM (active)
same,EC50,[14],6.33 µM (active)
same,EC50,[15],8.65 µM (active)
same,EC50,[16],0.844 µM (active)
same,EC50,[17],> 60 µM (not active)
same,AC50,[18],14.1 µM (active)
CC1(C)c2ccccc2C(=O)c2ccccc21,IC50,[1],24 µM (active)
O=C(N/N=C/c1cc(Cl)cc([N+](=O)[O-])c1O)C1CC1,EC50,[2],> 50 µM (active)
